According to US20150031622A1, “RHOGEF12 IS A THERAPEUTIC TARGET FOR THE TREATMENT OF HEART FAILURE” (MAX-PLANCK-GESELLSCHAFT ZUR FÖRDERUNG DER WISSENSCHAFTEN …, priority 2012, published 2015):
Bridges are numbered along the chain shown (N, C = ends). Where no end group is shown, it is not given here.

Tested on: neonatal rat ventricular myocytes (NRVM)
Test: qRT-PCR of hypertrophy-specific genes (ANP, β-MHC) in NRVM
Assay type: cell-based
Settings: NRVM control cells
Procedure: Neonatal rat ventricular myocytes (NRVM) were isolated from 1-2 days old rat neonates using a kit from Worthington Biochemical Corporation (Lakewood, N.J., USA). After digestion, cells were pre-plated for 1 h to remove nonmyocytes, plated on cell culture dishes pre-coated with 1% gelatin (Sigma-Aldrich) and then cultured in Dulbecco's modified Eagle's medium (DMEM) with 10% fetal bovine serum. The following day, cells were cultured in serum-free DMEM medium containing 100 μM 5-bromo 2′-deoxy-uridine (BrdU; Sigma-Aldrich). NRVM were transfected with siRNAs (Qiagen, Chatsworth, Calif., USA or Sigma-Aldrich) using Lipofectamine RNAiMAX (Invitrogen, San Diego, Calif., USA) 3 h and 20 h after plating according to the manufacturer's instructions. […]
RNA was extracted from left ventricles with the RNA fibrosis tissue kit (Qiagen) and from NRVM or adult mouse cardiomyocytes with the RNeasy Mini kit (Qiagen) according to the manufacture's protocol. […] Reverse transcriptase (RT) reaction was performed using the QuantiTect Reverse Transcription kit (Qiagen). Quantitative RT-PCR was performed using the LightCycler 480 Probe Master or LightCycler 480 SYBR Green Master (Roche). […]
Primers for the analysis of RhoGEF expression were used as described previously^40. Data are in all cases presented after normalization to GAPDH, in some cases the relative change compared to basal conditions was calculated.

Q: For “endothelin-1 (CSCSSLMDKECVYFCHLDIIW; disulfide 1-15, 3-11; ends not checked; UniProt P05305 53-73, looked up) [ET-1, hypertrophic stimulus, GPCR agonist, purchased from Sigma-Aldrich]”, which “expression of hypertrophy-specific genes (ANP, β-MHC) after stimulus” value is on record?
A: The value was “increased gene expression”.
